Reference: ChEMBL document CHEMBL1201862, “PubChem BioAssay data set” (2004)
Calls of active or inactive are those of the source.

Tests used:
[1] = target: T1, Methionyl-tRNA synthetase, putative (Trypanosoma brucei brucei, UniProt Q38C91); assay type: functional, Trypanosoma brucei brucei strain 927/4 GUTat10.1
T1 sequence (Q38C91 whole entry): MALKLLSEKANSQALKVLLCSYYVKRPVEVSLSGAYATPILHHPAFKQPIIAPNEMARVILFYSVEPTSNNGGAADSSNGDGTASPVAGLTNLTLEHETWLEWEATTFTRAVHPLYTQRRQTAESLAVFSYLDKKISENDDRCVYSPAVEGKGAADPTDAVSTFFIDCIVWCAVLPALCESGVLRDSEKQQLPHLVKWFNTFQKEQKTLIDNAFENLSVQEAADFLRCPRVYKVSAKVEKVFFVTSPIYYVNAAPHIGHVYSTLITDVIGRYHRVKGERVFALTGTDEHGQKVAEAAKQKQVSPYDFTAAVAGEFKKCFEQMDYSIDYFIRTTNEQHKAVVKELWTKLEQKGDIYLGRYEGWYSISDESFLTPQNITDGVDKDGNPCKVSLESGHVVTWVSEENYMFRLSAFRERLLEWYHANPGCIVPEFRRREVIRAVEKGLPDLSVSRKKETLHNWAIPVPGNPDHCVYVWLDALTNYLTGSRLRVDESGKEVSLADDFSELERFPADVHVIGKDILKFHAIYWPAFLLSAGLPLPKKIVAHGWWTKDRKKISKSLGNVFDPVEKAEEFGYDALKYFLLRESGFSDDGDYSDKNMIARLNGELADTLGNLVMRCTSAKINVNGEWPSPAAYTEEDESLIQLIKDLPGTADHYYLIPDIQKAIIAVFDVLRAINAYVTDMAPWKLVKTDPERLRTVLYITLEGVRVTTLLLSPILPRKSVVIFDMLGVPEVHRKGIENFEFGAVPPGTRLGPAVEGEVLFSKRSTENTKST

[2] = Counterscreen for inhibitors of Trypanosoma brucei methionyl tRNA synthetase (MetRS): Luminescence-based cell-based high throughput dose response assay to identify compounds that are cytotoxic to Jurkat human T lymphocyte cells.; assay type: functional
[3] = target: T1, Methionyl-tRNA synthetase, putative; assay type: functional, Trypanosoma brucei brucei strain 927/4 GUTat10.1; remark: listed apart in the source
[4] = cytotoxicity toward NIH3T3 fibroblasts, dose response, counter-screen, cell-based, ATP luminescence, mouse fibroblasts (AID 2010); assay type: functional;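 note: cells exposed to compound for about 90 hours before reading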
[5] = inhibitors of intracellular T. cruzi replication, confirmation, NIH3T3 host cells, beta-gal luminescence (AID 2044); assay type: functional, cell-based;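 note: intracellular parasites grown in NIH/3T3 mouse fibroblasts as host cells; luminescent beta-galactosidase reporter signal from transgenic T. cruzi replicating inside host cells; inhibitors lower the luminescence signal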
Protein Wnt-3a = Protein Wnt-3a (Mus musculus, UniProt P27467); experiment: Wnt3a-driven reporter signaling inhibition, dose response, selectivity assay for Gli-SUFU antagonist project, Wnt-LIGHT cells, luminescence (AID 651570); assay type: functional; settings: read-out: IC50_Mean;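 note: Wnt-LIGHT reporter cells stimulated with conditioned medium from Wnt3a-producing cells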
[6] = target: T2, Corticotropin-releasing factor receptor 2/Corticotropin-releasing factor-binding protein (Homo sapiens, UniProt P24387+Q13324); experiment: Dose Response confirmation of uHTS hits for small molecule antagonists of the CRF-binding protein and CRF-R2 receptor complex.; assay type: functional; settings: read-out: IC50_Mean
T2 sequence (Q13324 whole entry): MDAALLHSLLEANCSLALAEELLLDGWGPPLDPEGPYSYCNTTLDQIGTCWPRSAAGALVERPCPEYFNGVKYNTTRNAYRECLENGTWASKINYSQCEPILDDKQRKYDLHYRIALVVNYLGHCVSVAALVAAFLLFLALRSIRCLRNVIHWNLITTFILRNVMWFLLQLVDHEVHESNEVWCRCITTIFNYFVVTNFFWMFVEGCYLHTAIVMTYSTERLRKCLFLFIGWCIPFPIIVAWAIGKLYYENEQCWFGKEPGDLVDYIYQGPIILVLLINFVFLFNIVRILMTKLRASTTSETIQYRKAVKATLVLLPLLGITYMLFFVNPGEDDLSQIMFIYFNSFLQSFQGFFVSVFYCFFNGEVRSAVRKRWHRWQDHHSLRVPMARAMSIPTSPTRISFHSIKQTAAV
T2 sequence (P24387 whole entry): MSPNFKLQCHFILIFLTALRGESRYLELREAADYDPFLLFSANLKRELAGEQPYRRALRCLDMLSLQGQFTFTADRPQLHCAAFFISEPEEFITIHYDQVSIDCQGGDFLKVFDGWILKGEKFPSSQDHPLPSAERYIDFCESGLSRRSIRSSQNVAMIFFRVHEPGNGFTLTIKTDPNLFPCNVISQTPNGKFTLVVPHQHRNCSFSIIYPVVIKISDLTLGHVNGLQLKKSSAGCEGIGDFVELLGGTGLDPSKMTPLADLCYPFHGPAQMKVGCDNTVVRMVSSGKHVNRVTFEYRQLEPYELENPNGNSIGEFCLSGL

[7] = target: T3, Calpain-2 catalytic subunit (Sus scrofa, UniProt P43367); experiment: pig calpain II inhibitor potency, dose response, biochemical, fluorogenic peptide substrate (AID 1420); assay type: functional
T3 sequence (P43367 whole entry): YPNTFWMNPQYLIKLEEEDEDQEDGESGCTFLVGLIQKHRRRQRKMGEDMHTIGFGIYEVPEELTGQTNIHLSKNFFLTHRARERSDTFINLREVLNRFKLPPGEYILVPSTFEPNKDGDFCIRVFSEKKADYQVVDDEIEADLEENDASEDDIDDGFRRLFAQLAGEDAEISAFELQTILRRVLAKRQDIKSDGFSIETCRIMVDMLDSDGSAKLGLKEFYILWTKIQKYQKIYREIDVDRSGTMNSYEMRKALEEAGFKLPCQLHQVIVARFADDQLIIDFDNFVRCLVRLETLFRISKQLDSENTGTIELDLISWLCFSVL

[8] = CRF-BP/CRF-R2 complex antagonists, dose response, cell-based, uHTS hits, 384-well (AID 651639); assay type: functional, Homo sapiens; settings: read-out: IC50_Mean
[9] = target: T2, Corticotropin-releasing factor receptor 2/Corticotropin-releasing factor-binding protein; experiment: activators of CRF receptor 2 with binding protein – uHTS hits, confirmation (AID 602473); assay type: functional; settings: read-out: EC50_Mean
Mu-type opioid receptor = Mu-type opioid receptor (Homo sapiens, UniProt P35372); assay type: functional, cell-based;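 note: U2OS cells with beta-arrestin recruitment to OPRM1 by beta-gal complementation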
[10] = target: 5-hydroxytryptamine receptor 2A (Mus musculus, UniProt P35363); assay type: functional, cell-based;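 note: CHO-K1 cells with tagged receptor and beta-arrestin; agonist potency measured as compound-induced activation of the receptor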
cells [11] = assay type: functional, cell-based
[12] = target: Glucose-6-phosphate 1-dehydrogenase (Homo sapiens, UniProt P11413); experiment: human G6PD enzyme inhibitors, dose response, selectivity assay for P. falciparum G6PD inhibitor project, biochemical, fluorescence (AID 504792); assay type: functional
cells [13] = assay type: functional, cell-based; remark: listed apart in the source
Vero = experiment: cells; assay type: functional, cell-based; settings: Chlorocebus sabaeus
Genome polyprotein = Genome polyprotein (dengue virus type 2, UniProt P29990); experiment: Dengue-2 NS5 methyltransferase inhibitors, primary screen, biochemical, confirmation dose response (AID 588689); assay type: functional
[14] = target: Photoreceptor-specific nuclear receptor (Homo sapiens, UniProt Q9Y5X4); assay type: functional, cell-based;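 note: CHO-S cells with Gal4-NCOR and VP16-NR2E3 two-hybrid luciferase reporter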
[15] = target: T4, Endoribonuclease toxin MazF (Escherichia coli K-12, UniProt P0AE70); experiment: MazF toxin RNase activators, dose response, biochemical, fluorescence, single-stranded RNA substrate, uHTS hits (AID 588481); assay type: functional
T4 sequence (P0AE70 whole entry): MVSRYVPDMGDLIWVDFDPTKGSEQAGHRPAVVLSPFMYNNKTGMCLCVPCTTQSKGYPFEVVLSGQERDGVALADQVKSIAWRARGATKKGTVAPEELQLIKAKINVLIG

[16] = target: T4, Endoribonuclease toxin MazF; experiment: fluorescent RNA oligo signal without MazF, dose response, counter-screen for MazEF activator project, biochemical, fluorescence, single-stranded RNase substrate (AID 588502); assay type: functional

5-hydroxytryptamine receptor 2A, sequence (P35363 whole entry): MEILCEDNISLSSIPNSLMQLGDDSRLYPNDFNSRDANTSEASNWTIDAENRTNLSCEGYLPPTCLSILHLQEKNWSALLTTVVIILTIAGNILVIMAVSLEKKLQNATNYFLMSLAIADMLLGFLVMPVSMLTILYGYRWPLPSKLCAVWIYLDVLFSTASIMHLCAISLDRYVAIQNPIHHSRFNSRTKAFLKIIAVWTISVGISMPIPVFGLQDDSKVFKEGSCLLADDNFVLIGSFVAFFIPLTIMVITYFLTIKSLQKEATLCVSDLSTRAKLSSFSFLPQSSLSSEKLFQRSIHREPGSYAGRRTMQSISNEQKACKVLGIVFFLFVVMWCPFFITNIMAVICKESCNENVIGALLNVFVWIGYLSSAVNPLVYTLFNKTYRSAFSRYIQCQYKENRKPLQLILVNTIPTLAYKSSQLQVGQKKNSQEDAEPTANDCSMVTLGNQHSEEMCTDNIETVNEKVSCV
Mu-type opioid receptor, sequence (P35372 whole entry): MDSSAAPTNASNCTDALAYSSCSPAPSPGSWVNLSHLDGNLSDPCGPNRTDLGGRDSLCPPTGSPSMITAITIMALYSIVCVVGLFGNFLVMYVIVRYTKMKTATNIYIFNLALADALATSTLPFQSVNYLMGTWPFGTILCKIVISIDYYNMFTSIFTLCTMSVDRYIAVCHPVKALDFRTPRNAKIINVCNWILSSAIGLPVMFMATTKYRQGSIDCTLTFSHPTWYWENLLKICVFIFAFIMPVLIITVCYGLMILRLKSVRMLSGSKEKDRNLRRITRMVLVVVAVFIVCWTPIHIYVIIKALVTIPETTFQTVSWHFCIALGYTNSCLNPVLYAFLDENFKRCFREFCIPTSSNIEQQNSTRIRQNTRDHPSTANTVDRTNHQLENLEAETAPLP
Glucose-6-phosphate 1-dehydrogenase, sequence (P11413 whole entry): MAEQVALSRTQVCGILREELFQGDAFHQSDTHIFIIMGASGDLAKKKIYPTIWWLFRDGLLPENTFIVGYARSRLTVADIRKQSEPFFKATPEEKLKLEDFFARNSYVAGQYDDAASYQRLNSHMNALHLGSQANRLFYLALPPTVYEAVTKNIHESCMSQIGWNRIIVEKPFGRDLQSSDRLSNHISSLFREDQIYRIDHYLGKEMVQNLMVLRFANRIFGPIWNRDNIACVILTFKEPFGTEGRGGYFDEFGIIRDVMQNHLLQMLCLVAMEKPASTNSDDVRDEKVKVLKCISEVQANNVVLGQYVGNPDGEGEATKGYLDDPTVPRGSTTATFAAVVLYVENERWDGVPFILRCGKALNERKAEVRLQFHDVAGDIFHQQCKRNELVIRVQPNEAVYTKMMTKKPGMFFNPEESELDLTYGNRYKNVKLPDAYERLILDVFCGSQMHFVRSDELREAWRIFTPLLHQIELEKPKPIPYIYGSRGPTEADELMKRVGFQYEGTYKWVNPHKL
Photoreceptor-specific nuclear receptor, sequence (Q9Y5X4 whole entry, the tested form may be a part): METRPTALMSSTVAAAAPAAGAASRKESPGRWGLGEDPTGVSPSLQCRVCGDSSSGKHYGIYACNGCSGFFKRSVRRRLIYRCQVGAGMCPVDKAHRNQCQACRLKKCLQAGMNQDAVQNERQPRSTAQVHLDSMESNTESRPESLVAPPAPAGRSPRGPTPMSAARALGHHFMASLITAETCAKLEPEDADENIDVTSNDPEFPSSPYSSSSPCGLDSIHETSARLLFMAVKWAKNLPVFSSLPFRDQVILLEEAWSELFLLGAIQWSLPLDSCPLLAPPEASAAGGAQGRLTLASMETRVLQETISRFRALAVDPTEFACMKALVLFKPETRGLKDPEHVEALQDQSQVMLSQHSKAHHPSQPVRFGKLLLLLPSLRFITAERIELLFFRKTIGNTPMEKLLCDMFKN
Protein Wnt-3a, sequence (P27467 whole entry): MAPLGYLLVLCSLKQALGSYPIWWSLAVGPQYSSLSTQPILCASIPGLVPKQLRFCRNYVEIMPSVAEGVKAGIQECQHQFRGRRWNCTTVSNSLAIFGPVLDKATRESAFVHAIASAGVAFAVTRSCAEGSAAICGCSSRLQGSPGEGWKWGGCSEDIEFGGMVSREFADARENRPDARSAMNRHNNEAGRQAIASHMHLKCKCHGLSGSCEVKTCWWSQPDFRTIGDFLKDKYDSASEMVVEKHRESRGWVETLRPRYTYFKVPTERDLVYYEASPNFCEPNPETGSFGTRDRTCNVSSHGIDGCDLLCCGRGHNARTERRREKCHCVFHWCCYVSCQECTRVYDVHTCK
Genome polyprotein, sequence (P29990 2492-3391 limits assumed): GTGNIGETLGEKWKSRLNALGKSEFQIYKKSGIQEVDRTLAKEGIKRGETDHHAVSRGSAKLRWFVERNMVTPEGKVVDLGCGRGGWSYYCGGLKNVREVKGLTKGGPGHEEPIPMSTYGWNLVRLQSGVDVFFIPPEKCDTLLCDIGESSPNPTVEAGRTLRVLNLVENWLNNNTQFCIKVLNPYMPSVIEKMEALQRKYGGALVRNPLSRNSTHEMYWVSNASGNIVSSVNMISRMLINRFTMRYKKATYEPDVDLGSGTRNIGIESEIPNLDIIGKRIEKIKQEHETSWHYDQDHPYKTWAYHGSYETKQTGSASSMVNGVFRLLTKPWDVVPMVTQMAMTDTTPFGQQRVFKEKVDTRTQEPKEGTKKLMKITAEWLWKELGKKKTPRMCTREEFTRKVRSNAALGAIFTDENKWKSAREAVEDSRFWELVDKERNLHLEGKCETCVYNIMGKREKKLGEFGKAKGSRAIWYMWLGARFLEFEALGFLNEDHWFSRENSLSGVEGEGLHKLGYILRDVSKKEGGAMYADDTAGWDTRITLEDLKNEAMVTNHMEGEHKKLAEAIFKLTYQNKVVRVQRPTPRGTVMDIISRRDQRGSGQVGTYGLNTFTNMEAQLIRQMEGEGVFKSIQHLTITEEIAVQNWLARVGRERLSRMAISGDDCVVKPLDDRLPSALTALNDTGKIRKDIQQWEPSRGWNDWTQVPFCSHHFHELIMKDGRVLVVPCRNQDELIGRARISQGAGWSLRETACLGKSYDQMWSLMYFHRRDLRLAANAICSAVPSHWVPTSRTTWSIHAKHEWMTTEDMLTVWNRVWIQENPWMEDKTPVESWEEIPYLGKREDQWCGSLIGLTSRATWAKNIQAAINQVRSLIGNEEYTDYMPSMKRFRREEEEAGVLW

## O=C(Cc1ccc(Br)cc1)Nc1cccc(S(=O)(=O)N2CCOCC2)c1
[1]
  IC50: 7 µM (active)
[2]
  IC50: 82.3 µM (inactive)
[3]
  IC50: 3.47 µM (active)

## CCOc1ccc(-n2c(-c3ccc(Cl)cc3)c[n+]3c2SCC3)cc1
[4]
  EC50: 5.18 µM (active)
[5]
  EC50: 0.86 µM (active)
Protein Wnt-3a
  IC50: 1.33 µM (active)

## Cc1cc(C)c(NC(=O)/C(=C/c2ccccc2)c2ccccc2)c(C)c1
[6]
  IC50: 10.4 µM (active)
[7]
  IC50: > 50 µM (not active)
[8]
  IC50: > 20 µM (inactive)
[9]
  EC50: > 53 µM (inactive)

## O=[N+]([O-])c1ccc(OCC(O)CN2CCN(c3ccccc3F)CC2)cc1 (stereo unspecified)
Mu-type opioid receptor
  EC50: 92.5 µM (inactive)
[7]
  IC50: > 50 µM (not active)
[10]
  EC50: 76.1 µM (inactive)

## O=C(COc1cccc2ccccc12)Nc1ccc(Cl)cc1C(=O)O
Cells [11]
  EC50: > 350 µM (not active)
[12]
  IC50: 52.6 µM (inactive)
Cells [13]
  EC50: > 350 µM (not active)
Vero
  IC50: > 25 µM (active)
Genome polyprotein
  IC50: 37.7 µM (active)
[14]
  IC50: 5.31 µM (active)

## CCN(CC)S(=O)(=O)c1cc(NC(=O)CN2CCN(c3ccccn3)CC2)ccc1C
Mu-type opioid receptor
  EC50: 92.5 µM (inactive)
[10]
  EC50: 0.761 µM (active)

## Cc1nc(SCC(=O)c2cc3ccccc3oc2=O)c(C#N)c(-c2cccs2)c1C(=O)Nc1ccccc1
[15]
  EC50: > 99 µM (inactive)
[16]
  EC50: > 99 µM (inactive)

## O=C(Nc1ccc(C(=O)O)cc1)/C(=C\C=C\c1ccccc1)NC(=O)c1ccc(Br)cc1
[1]
  IC50: 11.5 µM (inactive)
[2]
  IC50: 83.3 µM (inactive)
[3]
  IC50: 29.6 µM (inactive)
